{
  "source": "patent US12246026B2",
  "about": "“Ganaxolone for use in treatment of status epilepticus” (Marinus Pharmaceuticals, Inc., priority 2019, dated 2025)",
  "key": {"progesterone receptor": {"target": "T1, progesterone receptor (Homo sapiens, UniProt P06401)", "T1 sequence (P06401 1-933)": "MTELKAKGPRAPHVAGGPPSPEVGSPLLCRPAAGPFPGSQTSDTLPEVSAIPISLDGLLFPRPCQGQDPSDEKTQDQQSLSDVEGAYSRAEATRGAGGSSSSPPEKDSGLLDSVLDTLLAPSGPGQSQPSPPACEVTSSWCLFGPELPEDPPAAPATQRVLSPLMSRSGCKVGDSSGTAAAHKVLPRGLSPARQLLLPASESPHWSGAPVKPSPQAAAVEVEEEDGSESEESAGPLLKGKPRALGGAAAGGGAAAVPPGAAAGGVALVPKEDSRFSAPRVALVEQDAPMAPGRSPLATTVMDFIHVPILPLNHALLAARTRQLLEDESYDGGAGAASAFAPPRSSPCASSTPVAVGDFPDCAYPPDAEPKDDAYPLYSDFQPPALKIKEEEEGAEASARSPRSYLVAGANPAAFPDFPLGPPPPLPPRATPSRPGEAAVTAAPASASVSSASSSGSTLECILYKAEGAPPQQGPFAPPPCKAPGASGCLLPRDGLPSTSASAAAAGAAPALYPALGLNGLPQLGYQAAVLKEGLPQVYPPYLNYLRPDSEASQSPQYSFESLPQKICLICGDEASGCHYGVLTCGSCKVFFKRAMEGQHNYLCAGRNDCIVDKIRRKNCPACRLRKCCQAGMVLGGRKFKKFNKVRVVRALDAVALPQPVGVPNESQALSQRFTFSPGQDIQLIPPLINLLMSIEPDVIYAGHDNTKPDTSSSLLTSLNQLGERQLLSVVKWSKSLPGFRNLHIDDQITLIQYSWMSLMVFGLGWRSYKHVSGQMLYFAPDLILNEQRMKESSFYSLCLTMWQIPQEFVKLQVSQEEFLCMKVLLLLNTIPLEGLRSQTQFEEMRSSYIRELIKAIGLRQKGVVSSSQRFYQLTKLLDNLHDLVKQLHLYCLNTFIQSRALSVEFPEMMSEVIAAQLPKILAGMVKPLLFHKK", "test": "Progesterone receptor activation", "settings": "directly or indirectly via metabolic conversion", "text": "Ganaxolone (3α-hydroxy-3β-methyl-5α-pregnan-20-one) is a 3β-methylated synthetic analogue of the endogenous neurosteroid allopregnanolone with similar biological activity (Carter et al., (1997), The Journal of Pharmacology and Experimental Therapeutics, 280:1284-1295), but it is designed to not activate nuclear (classical) progesterone receptors. Also, in contrast to allopregnanolone, ganaxolone is orally bioavailable."}, "[1]": {"test": "Phase 2 Study 1042-SE-2001 open-label group, safety", "type": "in vivo, human", "experimental": "As of 22 Mar. 2019, 5 subjects were enrolled into the Study 1042-SE-2001 open-label group under the original protocol that limits daily Captisol exposure at 35 g/day. […] The initial EEG pattern post-infusion initiation was described by study physicians as a “light” burst suppression that was maintained for several hours in all subjects. […] It was observed that when GNX exposure was lowered (20 mg/hr for 2 hours and ending with 10 mg/hr for the remaining 18 hours on Day 1) in order not to exceed this limit, seizure control could not be maintained and seizure activity (but not SE) re-occurred as evidenced by EEG changes. […] Seizure activity relapsed when plasma concentrations of GNX decreased <500 ng/mL in 4 out of 5 subjects.\nSubject 015-101 was a person who presented with focal convulsive SE due to a tumor (Day 1). Recent medical history included convulsive seizures, SE, and Glioblastoma multiform of parietal lobe. Subject was administered levetiracetam for SE and lorazepam, diazepam, dexamethasone, and multiple doses of levetiracetam for seizure control prior to study enrollment. On Day 3, the subject was enrolled in the study and started on IV GNX 30 mg bolus dose plus continuous infusion (85 mg/hr). At the start of dose initiation the subject was alert. […] They were arousable to voice but required continuous stimulation to stay awake or follow commands. They maintained their airway and was able to endorse that the numbness had resolved and reported that they no longer felt twitches. […] The subject had significant direction-changing nystagmus and complained of blurry vision. […] During the next 2 hours the subject remained somnolent and was becoming increasingly restless. As per the protocol, GNX was decreased to 40 mg/hr at 2 hours post dose initiation. Approximately 10 to 15 minutes after the infusion rate was decreased to 40 mg/hr, the subject's arousal improved, they became conversational, and wanted to eat. They had no seizures at this time. Vital signs remained stable. During the GNX infusion, concomitant lacosamide was increased due to increased numbness. […] Once the GNX taper was completed the investigator reported there were no sequelae.\nUnder the protocol amended with the 50 g/day Captisol limit, 1 subject was enrolled in the open-label study as of 26 Mar. 2019. The subject presented with NCSE due to a tumor. The subject failed 3 second-line IV AEDs and qualified for the study based on the study's inclusion/exclusion criteria. Within 3 minutes after starting the IV GNX infusion, the RSE ceased and seizure protection was maintained for the remaining 48 hours of GNX treatment. […] Pharmacokinetic data were unavailable at the time of this report."}},
  "note": "Entries after “also recorded” stand apart in the source; their conditions may differ.",
  "data": [
    {"smiles": "CC(=O)[C@H]1CC[C@H]2[C@@H]3CC[C@H]4C[C@](C)(O)CC[C@]4(C)[C@H]3CC[C@]12C", "note": "[Ganaxolone, 3α-hydroxy-3β-methyl-5α-pregnan-20-one]", "values": [
      {"measurement": "activation of the progesterone receptor", "setting": "progesterone receptor", "value": "does not activate the progesterone receptor directly or indirectly"},
      {"measurement": "safety finding related to GNX", "setting": "[1]; 1 subject, amended protocol, concomitant AEDs", "value": "increased sedation"},
      {"measurement": "GNX-related cardiovascular events requiring pharmacological intervention", "setting": "[1]; 5 subjects", "value": "no GNX-related cardiovascular events that required pharmacological intervention were observed"},
      {"measurement": "intubation as a direct result of GNX therapy", "setting": "[1]; 5 subjects", "value": "no subjects had to be intubated as a direct result of GNX therapy"},
      {"measurement": "adverse observations during infusion", "setting": "[1]; Subject 015-101, 30 mg bolus, 85 mg/hr, listed as GNX", "value": "significant somnolence; also recorded: urinary retention with urgency"}
    ]}
  ]
}
